Laboratory results: ChEMBL document CHEMBL1641599, “Design of novel N-phenylnicotinamides as selective cyclooxygenase-1 inhibitors” (Bioorg Med Chem Lett, 2011)

Target: T1, Prostaglandin G/H synthase 1 (Ovis aries, UniProt P05979)
T1 sequence (P05979 whole entry): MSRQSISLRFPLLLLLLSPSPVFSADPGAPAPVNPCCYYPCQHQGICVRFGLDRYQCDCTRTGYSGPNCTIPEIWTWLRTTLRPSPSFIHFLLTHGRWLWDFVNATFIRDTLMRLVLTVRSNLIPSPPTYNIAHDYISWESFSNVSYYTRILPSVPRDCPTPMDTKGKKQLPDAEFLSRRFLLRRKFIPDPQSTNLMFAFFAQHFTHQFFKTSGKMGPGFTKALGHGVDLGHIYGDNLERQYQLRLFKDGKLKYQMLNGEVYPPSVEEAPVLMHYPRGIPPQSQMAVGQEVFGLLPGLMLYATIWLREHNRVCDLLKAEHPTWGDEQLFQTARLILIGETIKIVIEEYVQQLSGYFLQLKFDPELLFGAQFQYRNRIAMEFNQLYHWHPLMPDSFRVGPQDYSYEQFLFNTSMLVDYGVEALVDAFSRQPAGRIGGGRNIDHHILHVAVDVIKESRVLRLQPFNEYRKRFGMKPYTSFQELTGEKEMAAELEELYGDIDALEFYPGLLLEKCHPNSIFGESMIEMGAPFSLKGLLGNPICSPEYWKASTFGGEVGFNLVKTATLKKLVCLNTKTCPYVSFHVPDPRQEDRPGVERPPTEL
Experiment: Inhibition of ovine COX1 after 5 mins by microplate reader assay

Compound	IC50
Cc1ccc(NC(=O)c2c[nH]c(=O)c(Cl)c2)cc1	95 µM
O=C(Nc1ccc(F)cc1)c1ccc[nH]c1=O	32 µM
O=C(Nc1ccc(Cl)cc1)c1ccc(O)nc1	9.2 µM
O=C(Nc1ccc(F)cc1)c1ccc(O)nc1	3.5 µM
O=C(Nc1ccc(Br)cc1)c1ccc(=O)[nH]c1	30 µM
COc1ccc(NC(=O)c2c[nH]c(=O)c(Cl)c2)cc1	44 µM
O=C(Nc1ccc(Br)cc1)c1cnc(O)c(Cl)c1	74 µM
O=C(Nc1ccc(F)cc1)c1c[nH]c(=O)c(Cl)c1	0.68 µM
O=C(Nc1cc(Cl)cc(Cl)c1)c1cnc(O)c(Cl)c1	29 µM
O=C(Nc1ccc(Cl)cc1Cl)c1cnc(O)c(Cl)c1	16 µM
O=C(Nc1ccc(Cl)cc1)c1c[nH]c(=O)c(Cl)c1	2.7 µM
O=C(Nc1ccc(Cl)cc1)c1cccnc1O	28 µM
COc1ccc(NC(=O)c2ccc(=O)[nH]c2)cc1	86 µM
Cc1ccc(C(=O)Nc2ccc(F)cc2)cn1	70 µM

Target: T2, Prostaglandin G/H synthase 1 (Ovis aries) (UniProt P05979)
T2 sequence (whole entry): T1 sequence (P05979 whole entry)
Experiment: Inhibition of ovine COX1 at 100 uM after 5 mins by microplate reader assay

Compound	inhibition
O=C(Nc1ccc(F)cc1)c1cnc(O)c(Cl)c1	90%
O=C(Nc1ccc(Cl)cc1)c1ccc(Cl)nc1	42%
O=C(Nc1ccc(Cl)cc1)c1cncc(Br)c1	13%
O=C(Nc1ccc(Cl)cc1)c1ccc(O)nc1	75%
O=C(Nc1ccc(F)cc1)c1ccc(O)nc1	78%
COc1ccc(NC(=O)c2ccc(C)nc2)cc1	26%
Cc1ccc(C(=O)Nc2ccc(Cl)cc2Cl)cn1	38%
COc1ccc(NC(=O)c2cncc(Br)c2)cc1	0%
Cc1ccc(C(=O)Nc2cc(Cl)cc(Cl)c2)cn1	20%
COc1ccc(NC(=O)c2ccc(Cl)nc2)cc1	38%
O=C(Nc1ccc(Br)cc1)c1cccnc1O	47%
Cc1ccc(NC(=O)c2ccc(Cl)nc2)cc1	25%
Cc1ccc(NC(=O)c2ccc(C)nc2)cc1	10%
COc1ccc(NC(=O)c2cnc(O)c(Cl)c2)cc1	64%
Cc1ccc(NC(=O)c2cnc(Cl)c(Cl)c2)cc1	37%
O=C(Nc1ccc(Cl)cc1Cl)c1cnc(Cl)c(Cl)c1	40%
O=C(Nc1ccc(Br)cc1)c1ccc(Cl)nc1	18%
O=C(Nc1ccc(Br)cc1)c1cnc(O)c(Cl)c1	58%
O=C(Nc1ccc(Br)cc1)c1cnc(Cl)c(Cl)c1	33%
Cc1ccc(NC(=O)c2cccnc2O)cc1	28%

Compound	inhibition
O=C(Nc1cccc(Cl)c1)c1cccnc1O	35%
O=C(Nc1ccc(F)cc1)c1cnc(Cl)c(Cl)c1	45%
O=C(Nc1ccc(Cl)cc1)c1cnc(Cl)c(Cl)c1	42%
O=C(Nc1cc(Cl)cc(Cl)c1)c1cnc(Cl)c(Cl)c1	34%
O=C(Nc1ccc(F)cc1)c1ccc(Cl)nc1	41%
O=C(Nc1cc(Cl)cc(Cl)c1)c1cnc(O)c(Cl)c1	63%
O=C(Nc1ccc(Cl)cc1Cl)c1cnc(O)c(Cl)c1	72%
O=C(Nc1ccc(F)cc1)c1cccnc1O	64%
Cc1ccc(C(=O)Nc2ccc(Br)cc2)cn1	35%
O=C(Nc1ccc(Br)cc1)c1cncc(Br)c1	5%
O=C(Nc1ccc(Cl)cc1Cl)c1cncc(Br)c1	19%
O=C(Nc1ccc(Cl)cc1)c1cnc(O)c(Cl)c1	84%
Cc1ccc(C(=O)Nc2ccc(Cl)cc2)cn1	45%
Cc1ccc(NC(=O)c2ccc(O)nc2)cc1	40%
O=C(Nc1ccc(Cl)cc1)c1cccnc1O	60%
COc1ccc(NC(=O)c2ccc(O)nc2)cc1	53%
Cc1ccc(C(=O)Nc2ccc(F)cc2)cn1	59%
COc1ccc(NC(=O)c2cccnc2O)cc1	42%
Cc1ccc(NC(=O)c2cnc(O)c(Cl)c2)cc1	50%
O=C(Nc1ccc(Br)cc1)c1ccc(O)nc1	64%
